# Assay results reported in ChEMBL document CHEMBL3734721 (J Med Chem, 2015).
# pEC50, pIC50: −log10 of the molar value.
# Experiments:
# [1] = target: Beta-1 adrenergic receptor (Homo sapiens, UniProt P08588); assay: Antagonist activity at human beta1 receptor expressed in CHO-K1 cells assessed as isoproterenol-induced cAMP level by HTRF assay; format: functional, cell-based
# [2] = Chemical stability of compound in 0.1N HCL assessed as compound remaining at 10 mg/ml after 1 day; format: physicochemical; settings: read-out: Stability
# [3] = Chemical stability of compound in 0.1N NaOH assessed as compound remaining at 10 mg/ml after 2 days; format: physicochemical; settings: read-out: Stability
# [4] = Chemical stability of compound in buffer at pH 7.4 assessed as compound remaining at 10 mg/ml after 1 day; format: physicochemical; settings: read-out: Stability
# [5] = target: 5-hydroxytryptamine receptor 2B (Homo sapiens, UniProt P41595); assay: Antagonist activity at human 5-HT2B receptor expressed in CHO-K1 cells assessed as seretonin-induced calcium level by FDSS assay; format: functional, cell-based
# [6] = target: T1, Alpha-2C adrenergic receptor (Homo sapiens, UniProt P18825); assay: Antagonist activity at human wild-type alpha 2C receptor expressed in CHO-K1 cells assessed as epinephrine-induced cAMP by HTRF assay; format: functional, cell-based
# T1 sequence (P18825 whole entry): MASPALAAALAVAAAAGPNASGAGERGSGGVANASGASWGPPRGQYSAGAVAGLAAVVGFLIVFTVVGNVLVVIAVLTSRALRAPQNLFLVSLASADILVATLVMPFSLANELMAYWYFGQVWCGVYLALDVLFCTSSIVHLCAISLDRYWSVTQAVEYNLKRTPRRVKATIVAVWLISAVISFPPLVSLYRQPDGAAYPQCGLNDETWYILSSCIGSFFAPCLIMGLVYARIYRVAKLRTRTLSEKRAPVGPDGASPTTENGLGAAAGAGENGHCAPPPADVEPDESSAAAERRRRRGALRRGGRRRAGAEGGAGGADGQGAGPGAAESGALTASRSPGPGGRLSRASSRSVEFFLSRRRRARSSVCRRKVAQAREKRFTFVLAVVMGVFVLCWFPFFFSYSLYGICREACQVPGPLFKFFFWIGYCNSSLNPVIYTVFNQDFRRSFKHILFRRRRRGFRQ
# [7] = target: T2, Type-1 angiotensin II receptor (Homo sapiens, UniProt P30556); assay: Antagonist activity at human wild-type AGTR1 receptor expressed in CHO-K1 cells assessed as angiotensin-2-induced calcium by FDSS assay; format: functional, cell-based
# T2 sequence (P30556 whole entry): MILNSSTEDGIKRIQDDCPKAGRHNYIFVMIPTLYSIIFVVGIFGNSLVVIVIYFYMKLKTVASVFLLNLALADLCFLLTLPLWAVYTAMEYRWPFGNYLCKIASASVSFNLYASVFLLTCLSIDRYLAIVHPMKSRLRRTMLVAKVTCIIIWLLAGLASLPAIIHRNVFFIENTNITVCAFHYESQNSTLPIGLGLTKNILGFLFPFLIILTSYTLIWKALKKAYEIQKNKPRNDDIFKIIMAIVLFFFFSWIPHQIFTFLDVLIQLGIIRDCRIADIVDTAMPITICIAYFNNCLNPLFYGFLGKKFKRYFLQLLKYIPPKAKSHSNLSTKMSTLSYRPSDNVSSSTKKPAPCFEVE
# Endothelin-1 receptor = target: T3, Endothelin-1 receptor (Homo sapiens, UniProt P25101); assay: Antagonist activity at human wild-type ETA receptor expressed in CHO-K1 cells assessed as endothelin-1-induced calcium by HTRF assay; format: functional, cell-based
# T3 sequence (P25101 whole entry): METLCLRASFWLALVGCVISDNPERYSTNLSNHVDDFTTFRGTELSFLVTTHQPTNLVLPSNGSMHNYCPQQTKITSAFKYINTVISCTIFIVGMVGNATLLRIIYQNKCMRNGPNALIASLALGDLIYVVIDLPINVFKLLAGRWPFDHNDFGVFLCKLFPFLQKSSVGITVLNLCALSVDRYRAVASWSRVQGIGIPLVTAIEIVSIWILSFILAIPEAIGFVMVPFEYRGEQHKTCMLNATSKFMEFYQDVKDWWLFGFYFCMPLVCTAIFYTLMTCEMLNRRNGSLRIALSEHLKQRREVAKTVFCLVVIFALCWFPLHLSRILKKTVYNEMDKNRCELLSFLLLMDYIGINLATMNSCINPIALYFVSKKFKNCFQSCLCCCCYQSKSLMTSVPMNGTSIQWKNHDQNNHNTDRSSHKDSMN
# [8] = target: 5-hydroxytryptamine receptor 2A (Homo sapiens, UniProt P28223); assay: Agonist activity at human 5-HT2A receptor expressed in CHO-K1 cells assessed as calcium level by FDSS assay; format: functional, cell-based
# [9] = target: 5-hydroxytryptamine receptor 6 (Homo sapiens, UniProt P50406); assay: Agonist activity at human 5-HT6 receptor expressed in 1321N1 cells assessed as cAMP by HTRF assay; format: functional, cell-based
# Adenosine receptor A3 = target: T4, Adenosine receptor A3 (Homo sapiens, UniProt P0DMS8); assay: Agonist activity at human wild-type A3 receptor expressed in CHO-K1 cells assessed as cAMP level by HTRF assay; format: functional, cell-based
# T4 sequence (P0DMS8 whole entry): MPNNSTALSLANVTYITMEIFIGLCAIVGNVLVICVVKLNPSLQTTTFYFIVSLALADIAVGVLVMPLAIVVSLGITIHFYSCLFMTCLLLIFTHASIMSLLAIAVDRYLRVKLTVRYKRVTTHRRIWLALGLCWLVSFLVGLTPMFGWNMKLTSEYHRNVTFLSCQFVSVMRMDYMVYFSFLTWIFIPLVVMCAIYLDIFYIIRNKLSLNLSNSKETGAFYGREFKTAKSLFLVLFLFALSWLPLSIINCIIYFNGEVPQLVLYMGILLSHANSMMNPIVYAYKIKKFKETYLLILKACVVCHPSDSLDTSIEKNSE
# Vasopressin V1a receptor = Vasopressin V1a receptor (Homo sapiens, UniProt P37288); assay: Agonist activity at human wild-type AVPR1A receptor expressed in CHO-K1 cells assessed as calcium level by FDSS assay; format: functional, cell-based
# D(2) dopamine receptor = D(2) dopamine receptor (Homo sapiens, UniProt P14416); assay: Agonist activity at human wild-type D2 receptor expressed in CHO-K1 cells assessed as cAMP level by HTRF assay; format: functional, cell-based
# Cytochrome P450 2C19 = Cytochrome P450 2C19 (Homo sapiens, UniProt P33261); assay: Inhibition of human CYP2C19 by LC-MS analysis; format: ADME
# Liver microsome = assay: Metabolic stability in human liver microsomes assessed as CN adduct formation at 40 uM for 1 hr by LC/MS analysis; format: ADME
# [10] = Ratio of drug level in brain to plasma in Swiss mouse at 5 mg/kg, sc; format: ADME, organism-based; settings: read-out: BPR
# Chain of D(2) dopamine receptor (P14416 whole entry): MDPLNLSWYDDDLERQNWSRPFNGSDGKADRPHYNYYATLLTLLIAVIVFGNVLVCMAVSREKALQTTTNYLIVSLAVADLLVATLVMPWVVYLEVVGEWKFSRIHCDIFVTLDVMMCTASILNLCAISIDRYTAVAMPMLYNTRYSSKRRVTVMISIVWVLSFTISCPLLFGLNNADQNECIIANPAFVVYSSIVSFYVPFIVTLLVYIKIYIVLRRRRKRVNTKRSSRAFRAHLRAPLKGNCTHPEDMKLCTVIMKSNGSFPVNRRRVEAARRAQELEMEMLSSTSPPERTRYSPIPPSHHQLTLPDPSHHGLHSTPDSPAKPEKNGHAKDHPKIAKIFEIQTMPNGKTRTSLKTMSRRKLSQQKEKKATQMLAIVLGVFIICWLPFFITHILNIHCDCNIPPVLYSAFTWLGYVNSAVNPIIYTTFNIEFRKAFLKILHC
# Chain of Cytochrome P450 2C19 (P33261 whole entry): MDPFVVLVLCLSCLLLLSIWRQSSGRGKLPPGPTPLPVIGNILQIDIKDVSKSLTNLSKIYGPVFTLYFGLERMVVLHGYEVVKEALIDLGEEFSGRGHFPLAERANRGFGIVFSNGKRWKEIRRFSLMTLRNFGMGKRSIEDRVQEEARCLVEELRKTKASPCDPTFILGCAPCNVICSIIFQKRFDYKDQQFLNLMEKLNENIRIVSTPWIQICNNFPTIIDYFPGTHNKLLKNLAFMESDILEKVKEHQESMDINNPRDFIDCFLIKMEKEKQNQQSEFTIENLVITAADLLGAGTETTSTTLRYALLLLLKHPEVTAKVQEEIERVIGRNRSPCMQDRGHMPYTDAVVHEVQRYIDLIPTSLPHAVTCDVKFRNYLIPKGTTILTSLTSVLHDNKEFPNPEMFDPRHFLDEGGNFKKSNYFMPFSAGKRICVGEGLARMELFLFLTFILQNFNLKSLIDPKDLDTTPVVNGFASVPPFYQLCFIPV
# Chain of 5-hydroxytryptamine receptor 2B (P41595 whole entry): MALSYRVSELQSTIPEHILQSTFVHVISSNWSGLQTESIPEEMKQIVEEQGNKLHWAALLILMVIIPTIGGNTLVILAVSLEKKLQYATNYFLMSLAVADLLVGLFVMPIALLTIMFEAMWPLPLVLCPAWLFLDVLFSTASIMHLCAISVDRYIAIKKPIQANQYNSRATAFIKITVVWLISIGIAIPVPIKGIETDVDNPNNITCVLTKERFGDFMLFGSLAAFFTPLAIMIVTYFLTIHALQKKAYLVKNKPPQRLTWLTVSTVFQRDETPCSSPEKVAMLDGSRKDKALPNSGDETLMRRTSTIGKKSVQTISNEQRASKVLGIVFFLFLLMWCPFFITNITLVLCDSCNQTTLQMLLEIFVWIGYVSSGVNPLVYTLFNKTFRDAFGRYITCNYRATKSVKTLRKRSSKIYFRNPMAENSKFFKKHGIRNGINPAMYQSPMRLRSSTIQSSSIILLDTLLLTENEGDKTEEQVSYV
# Chain of Vasopressin V1a receptor (P37288 whole entry): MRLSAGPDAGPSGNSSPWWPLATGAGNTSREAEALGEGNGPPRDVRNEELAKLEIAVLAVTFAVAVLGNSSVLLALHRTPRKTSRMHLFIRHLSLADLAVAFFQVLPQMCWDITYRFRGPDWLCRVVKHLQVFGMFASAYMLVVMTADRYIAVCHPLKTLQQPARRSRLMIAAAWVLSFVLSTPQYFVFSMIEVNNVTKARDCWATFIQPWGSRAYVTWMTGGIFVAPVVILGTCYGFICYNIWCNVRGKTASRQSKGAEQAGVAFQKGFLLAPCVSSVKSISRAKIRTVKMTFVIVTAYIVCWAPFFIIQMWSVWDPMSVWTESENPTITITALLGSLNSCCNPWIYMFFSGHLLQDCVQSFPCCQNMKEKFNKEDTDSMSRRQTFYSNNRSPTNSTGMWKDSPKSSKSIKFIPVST
# Chain of 5-hydroxytryptamine receptor 6 (P50406 whole entry): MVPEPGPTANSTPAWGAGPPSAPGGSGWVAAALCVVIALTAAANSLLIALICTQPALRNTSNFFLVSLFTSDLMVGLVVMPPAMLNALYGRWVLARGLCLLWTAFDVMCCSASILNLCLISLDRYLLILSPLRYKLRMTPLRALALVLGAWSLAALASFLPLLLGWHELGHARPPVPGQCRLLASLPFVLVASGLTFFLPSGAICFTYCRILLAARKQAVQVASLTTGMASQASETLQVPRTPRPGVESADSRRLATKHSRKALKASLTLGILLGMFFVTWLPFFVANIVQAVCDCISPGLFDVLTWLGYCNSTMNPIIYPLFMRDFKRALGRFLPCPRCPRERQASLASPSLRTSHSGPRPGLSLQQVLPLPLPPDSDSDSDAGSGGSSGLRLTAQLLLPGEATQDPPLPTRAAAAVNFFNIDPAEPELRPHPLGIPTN
# Chain of Beta-1 adrenergic receptor (P08588 whole entry): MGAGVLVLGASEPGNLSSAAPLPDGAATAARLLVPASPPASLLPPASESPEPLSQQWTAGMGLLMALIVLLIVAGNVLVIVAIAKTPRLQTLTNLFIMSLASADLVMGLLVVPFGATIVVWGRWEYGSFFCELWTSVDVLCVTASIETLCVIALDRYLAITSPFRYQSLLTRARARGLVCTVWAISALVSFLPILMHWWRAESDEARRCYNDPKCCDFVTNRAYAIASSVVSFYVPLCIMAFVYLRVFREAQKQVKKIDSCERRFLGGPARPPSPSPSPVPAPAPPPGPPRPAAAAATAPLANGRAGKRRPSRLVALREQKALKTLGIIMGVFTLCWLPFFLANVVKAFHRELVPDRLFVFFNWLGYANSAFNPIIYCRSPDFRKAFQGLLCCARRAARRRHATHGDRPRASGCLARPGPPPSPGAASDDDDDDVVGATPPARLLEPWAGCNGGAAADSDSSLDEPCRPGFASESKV
# Chain of 5-hydroxytryptamine receptor 2A (P28223 whole entry): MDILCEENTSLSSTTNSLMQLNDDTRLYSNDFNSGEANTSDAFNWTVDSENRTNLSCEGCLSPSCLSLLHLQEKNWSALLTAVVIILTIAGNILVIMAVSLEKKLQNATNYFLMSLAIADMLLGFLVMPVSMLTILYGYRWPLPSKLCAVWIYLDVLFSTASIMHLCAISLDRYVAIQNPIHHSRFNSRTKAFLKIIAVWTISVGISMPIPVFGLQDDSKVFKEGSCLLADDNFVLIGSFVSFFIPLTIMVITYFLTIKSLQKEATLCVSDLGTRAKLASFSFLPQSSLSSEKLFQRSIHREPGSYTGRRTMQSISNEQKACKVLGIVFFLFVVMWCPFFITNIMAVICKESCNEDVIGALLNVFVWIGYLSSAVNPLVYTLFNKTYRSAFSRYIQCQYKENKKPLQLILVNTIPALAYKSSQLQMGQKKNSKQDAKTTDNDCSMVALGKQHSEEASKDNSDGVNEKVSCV
pIC50 [1],"remaining at 24 h, 10 mg/ml [2] [%]","remaining at 48 h, 10 mg/ml [3] [%]","remaining at 24 h, 10 mg/ml [4] [%]",pIC50 [5],pIC50 [6],pIC50 [7],pIC50 (Endothelin-1 receptor),pEC50 [8],pEC50 [9],pEC50 (Adenosine receptor A3),pEC50 (Vasopressin V1a receptor),pEC50 (D(2) dopamine receptor),pIC50 (Cytochrome P450 2C19),Stability (Liver microsome),Kp [10],SMILES
6.20,0,82,93,< 5.30,< 5.30,< 5.30,< 5.30,< 5.30,< 5.30,< 5.30,< 5.30,< 5.30,< 5.00,Stable,13,CB1C=Cc2cccc(OCC(O)CNC(C)C)c2N1 (configuration not stated)
6.70,0,83,96,< 5.30,< 5.30,< 5.30,< 5.30,< 5.30,< 5.30,< 5.30,< 5.30,< 5.30,< 5.00,Stable,19,CB1C=Cc2c(cccc2OCC(O)CN(C)C)N1 (configuration not stated)
